Among the data in article PMC12040169 (PLOS Biology, 2025) are viability values, retold here.

This data set in a line: in vitro. The conditions noted are these: human, hela cells, % viability.

For `Cc1occc1-c1nn(CCN2CCCCC2)c(=O)o1` [CBK283815], the viability – broadly, a read-out of living cells in per cent, often relative to untreated cells – at 28.5 h, 10 µM came to 96.8%.

Consider `CC(=O)c1ccc(-c2cc(C(=O)Nc3ccc4c(c3)OCCO4)cnc2-c2ccc(Cl)cc2)s1` [CBK036627], for which the viability at 28.5 h, 10 µM came to 105%.

For the compound `Cc1cc(C)n(CC2CN(C(C)C(=O)NCc3ccco3)CCO2)n1` (stereo not drawn) [CBK305351], the viability at 28.5 h, 10 µM was 101%.

For the compound `CC(=O)Nc1ccc(/C(C)=N\NC(=O)CCN2CCCCC2)cc1` [CBK263509], the viability at 28.5 h, 10 µM amounted to 95.9%.

As for `CCN1CCC(CC(=O)N2CCC(c3ccccc3)C2)CC1` (stereo not drawn) [CBK281958], the viability at 28.5 h, 10 µM was 79.5%.

Regarding `CC(NC(=O)Nc1ccccc1O)(C(F)(F)F)C(F)(F)F` [CBK268019], the viability at 28.5 h, 10 µM came out at 101%.

Turning to `CC(=O)c1cccc(NC(=O)N(CCO)C2CCc3ccccc32)c1` (stereo not drawn) [CBK305517], the viability at 28.5 h, 10 µM stood at 93.4%.

With `COc1cc(NC(=O)CC2NC3CCCCC3NC2=O)cc(OC)c1` (stereo not drawn) [CBK266597], the viability at 28.5 h, 10 µM is 99.1%.

In the case of `CC(C)Cc1csc2nc(-c3ccc(Br)cc3)oc(=O)c12` [CBK026692], the viability at 28.5 h, 10 µM worked out at 96.7%.

Take `Cc1cc(C)cc(OCC(=O)Nc2ccc3[nH]c(=O)[nH]c3c2)c1` [CBK269676]: the viability at 28.5 h, 10 µM came to 99.5%.

As for `COC(=O)Nc1ccc(S(=O)(=O)N2CCCC(C(=O)Nc3ccc4c(c3)OCO4)C2)cc1` (stereo not drawn) [CBK265361], the viability at 28.5 h, 10 µM came to 89.8%.

Regarding `O=C(CCS(=O)(=O)c1ccccc1)Nc1cncc(OC2CCNCC2)n1` [CBK028438T], the viability at 28.5 h, 10 µM is 94.1%.

Consider `CC(C)(C)OC(=O)N1CCC[C@H]([C@H](O)c2cccs2)C1` [CBK282301], for which the viability at 28.5 h, 10 µM turned out to be 102%.

For `c1ccc(-c2cccc(-c3cc(Nc4ccc(N5CCOCC5)cc4)ncn3)c2)cc1` [CBK090930], the viability at 28.5 h, 10 µM turned out to be 90.2%.

Regarding `O=C(C1CCCC1)N1C[C@@H]2CCCCN(CC3CC3)[C@@H]2C1` [CBK285493], the viability at 28.5 h, 10 µM came out at 104%.

`C[C@@H]1CN(C)CCN1c1nccnc1OCCOc1cccnc1OCCCCCN(C)C` [CBK051566]: the viability at 28.5 h, 10 µM stood at 103%.

In the case of `c1ccc(Cn2c3ccccc3c3nnc(SCc4ccc5nonc5c4)nc32)cc1` [CBK267517], the viability at 28.5 h, 10 µM worked out at 91.5%.

For `CCOC(=O)c1[nH]c2ccccc2c1NC(=O)c1ccc(Cl)c(C)c1` [CBK160146], the viability at 28.5 h, 10 µM is 87%.

With `CC(OC(=O)c1ccc2c(c1)C(=O)N(c1ccc([N+](=O)[O-])cc1)C2=O)C(=O)c1ccccc1` (stereo not drawn) [CBK157061], the viability at 28.5 h, 10 µM was 94.3%.

`Cc1cc(C)nc(Nc2n[nH]c(COc3ccccc3)n2)n1` [CBK268016]: the viability at 28.5 h, 10 µM amounted to 93.2%.

`CC(NC(=O)CCc1cn(C)c2ccccc12)c1ccccn1` (stereo not drawn) [CBK281889]: the viability at 28.5 h, 10 µM is 93.1%.

Consider `O=C(Nn1cnnc1)c1ccccc1CCc1ccccc1` [CBK268578], for which the viability at 28.5 h, 10 µM was 87.7%.

Take `COC(=O)[C@H]1CN(C(=O)Cc2ccccn2)C[C@@H]1c1ccc(F)cc1` [CBK283519]: the viability at 28.5 h, 10 µM is 93.8%.

On to `CCOc1cc(-c2nc3sc(CC)cc3c(=O)[nH]2)ccc1OCC(=O)O` [CBK298291], for which the viability at 28.5 h, 10 µM is 88.4%.

On to `O=S(=O)(NCc1ccc(C(F)(F)F)cc1)c1cccs1` [CBK043744], for which the viability at 28.5 h, 10 µM is 94.5%.

For the compound `OC(CNCCNc1nccc(C(F)(F)F)n1)Cn1ccc2ccccc21` (stereo not drawn) [CBK074642], the viability at 28.5 h, 10 µM is 106%.

Turning to `Cc1ccc(C2CCCN2C(=O)c2ccc(=O)n(CC(=O)Nc3ccc(F)cc3)c2)cc1C` (stereo not drawn) [CBK286088], the viability at 28.5 h, 10 µM was found to be 107%.

Turning to `CC(=O)c1ccc(NC(=O)C2C3C=CC(C3=C(c3ccccc3)c3ccccc3)C2C(=O)O)cc1` (stereo not drawn) [CBK265696], the viability at 28.5 h, 10 µM is 98.4%.

For the compound `COc1ccc(-c2ccc(CCC(=O)O)n2Cc2ccco2)cc1` [CBK265945], the viability at 28.5 h, 10 µM came to 92.6%.

Regarding `CCOCCCn1c(SC(C)C#N)nc2ccc(Br)cc2c1=O` (stereo not drawn) [CBK306084], the viability at 28.5 h, 10 µM turned out to be 85.7%.

As to `CC(=O)N1CCCC1C(=O)N1CC(C(=O)Nc2nc3c(C)cc(C)cc3s2)C1` (stereo not drawn) [CBK286039], the viability at 28.5 h, 10 µM stood at 86%.

Take `O=C(Nc1cc([N+](=O)[O-])ccc1O)c1ccc2c(c1)C(=O)N(Cc1cccnc1)C2=O` [CBK266770]: the viability at 28.5 h, 10 µM amounted to 92.7%.

In the case of `NC(=O)CN1C(=O)CO[C@H]2CN(Cc3cnc4ccccc4c3)C[C@H]21` [CBK289242], the viability at 28.5 h, 10 µM was determined as 106%.

Take `O=C(O)c1ccc(S(=O)(=O)N(CC2CC=CCC2)CC2CCCO2)cc1` (stereo not drawn) [CBK286685]: the viability at 28.5 h, 10 µM came to 101%.

With `COc1cccc(C(NC(=O)C2COc3ccc(OC)cc3C2)c2ccccc2)c1` (stereo not drawn) [CBK285713], the viability at 28.5 h, 10 µM came to 97.7%.

Take `N#Cc1ccc(Oc2ccc3c(c2)-c2cc(Oc4ccc(C#N)c(C#N)c4)ccc2S3(=O)=O)cc1C#N` [CBK261151]: the viability at 28.5 h, 10 µM worked out at 92.4%.

For `O=C(O)C1C2C=CC3(CN(C/C=C/c4ccccc4)C(=O)C13)O2` (stereo not drawn) [CBK286946], the viability at 28.5 h, 10 µM amounted to 119%.

`CCCc1[nH]nc(O)c1-c1ccc(OC)cc1` [CBK075135]: the viability at 28.5 h, 10 µM came out at 96.1%.

On to `O=S(=O)(NCc1ccccc1)c1ccc(Cl)c(S(=O)(=O)NCc2ccccc2)c1` [CBK263251], for which the viability at 28.5 h, 10 µM was determined as 81.9%.

For the compound `N#Cc1cccnc1N1CCC(NC(=O)c2ccc3nccn3c2)CC1` [CBK306566], the viability at 28.5 h, 10 µM came out at 95.1%.

On to `Cc1cccc2cc(/C=C(\C#N)c3nc(-c4cc5ccccc5oc4=O)cs3)c(Cl)nc12` [CBK261642], for which the viability at 28.5 h, 10 µM was 85.4%.

In the case of `CC(=O)N(C)c1ccc(NC(=O)/C=C/C(=O)O)cc1` [CBK287162], the viability at 28.5 h, 10 µM was found to be 87%.

As for `CC(=O)c1sc(NC(=O)c2ccccc2Oc2ccccc2)nc1C` [CBK287314], the viability at 28.5 h, 10 µM turned out to be 90.9%.

Regarding `CCOC(=O)NC(=O)N1CCC(N2C(=O)OCC2(C)C)CC1` [CBK044179], the viability at 28.5 h, 10 µM amounted to 90.5%.

In the case of `COc1ccc(C(=O)N(CCC(C)C)Cc2nc(C)c(C)n2Cc2ccccc2Cl)c(OC)c1` [CBK093441], the viability at 28.5 h, 10 µM turned out to be 86.2%.

As for `CCNC(=S)N(CCc1ccccc1)C1CC(=O)N(c2ccc(F)cc2)C1=O` (stereo not drawn) [CBK262941], the viability at 28.5 h, 10 µM was 87.6%.

As for `O=C(CN1CCC(c2ccc(F)cc2)CC1)N1CCCCC1` [CBK283640], the viability at 28.5 h, 10 µM worked out at 101%.

As to `CSCCN1CCC2(CC1)CN(C(=O)C(C)C)c1ccccc12` [CBK131473], the viability at 28.5 h, 10 µM was 101%.

With `CCOC(=O)N1CCC2(CC1)OCc1ccc(-c3ccc(S(C)(=O)=O)cc3)cc1O2` [CBK133035], under “bulk resorufin, single well”, the viability at 28.5 h, 10 µM turned out to be 86.1%.

Take `N#CCCCN1CCC(Oc2cncc(OCc3cccnc3)n2)C1` (stereo not drawn) [CBK084466]: the viability at 28.5 h, 10 µM is 105%.

Consider `COc1ccc(Oc2nccnc2N2CCN(Cc3ccc(Cl)cc3)CC2)cc1OC` [CBK083041T], for which the viability at 28.5 h, 10 µM was 87.3%.

For the compound `Clc1cccc(-c2cc(NCc3cccs3)n3nccc3n2)c1` [CBK037238], the viability at 28.5 h, 10 µM came to 105%.

For the compound `O=C(CCCCCN1C(=O)c2cccc3cccc(c23)C1=O)NO` [CBK261295], the viability at 28.5 h, 10 µM came out at 55.6%.

As for `O=S(=O)(NCc1ccco1)N1CCOCC1` [CBK268749], the viability at 28.5 h, 10 µM came out at 90.2%.

On to `CC1c2ccsc2CCN1C(=O)COc1cccc(Br)c1` (stereo not drawn) [CBK305434], for which the viability at 28.5 h, 10 µM was 91.9%.

Consider `COc1cc(C(=O)Nc2ccc3oc(-c4cccnc4)nc3c2)ccc1OCc1ccc(Cl)cc1` [CBK264037], for which the viability at 28.5 h, 10 µM worked out at 87.9%.

`O=C(CSc1nnc(SCc2cccc3ccccc23)s1)c1ccc2c(c1)OCO2` [CBK267576]: the viability at 28.5 h, 10 µM was 100%.

For the compound `Cc1csc2c(N3CCC(NCCCc4cnn(C)c4)CC3)ncnc12` [CBK307291], the viability at 28.5 h, 10 µM amounted to 98.2%.

Turning to `Cc1ccc(S(=O)(=O)N2CCN(CCC(=O)O)CC2)cc1` [CBK269443], the viability at 28.5 h, 10 µM was determined as 97.1%.

Turning to `O=C(NC1CCCC1)c1cc(=O)n(Cc2ccc(Cl)cc2)c2ccccc12` [CBK294464], the viability at 28.5 h, 10 µM turned out to be 104%.

Regarding `Cc1ccccc1C(NC(=O)C1CCN(C(=O)NCc2ccccc2)CC1)c1ncccc1C` (stereo not drawn) [CBK060398], the viability at 28.5 h, 10 µM came out at 94.9%.

`CCOC(=O)N1CCC(NS(=O)(=O)c2ccc(F)cc2)CC1` [CBK045455]: the viability at 28.5 h, 10 µM came to 95.1%.

Take `Nc1ncc(-c2ccoc2)nc1Nc1ccc2[nH]ccc2c1` [CBK063868]: the viability at 28.5 h, 10 µM stood at 80.5%.

In the case of `COc1ccc(S(=O)(=O)Nc2ccc(C(=O)O)cc2)cc1[N+](=O)[O-]` [CBK266130], the viability at 28.5 h, 10 µM is 103%.

For the compound `OC1(c2cccnc2)CCCC2CN(Cc3c(F)cccc3F)CC21` (stereo not drawn) [CBK284512], the viability at 28.5 h, 10 µM was 114%.

For `Cn1c(SCc2cc(-c3ccc(Cl)cc3)no2)nnc1-c1ccco1` [CBK295193], the viability at 28.5 h, 10 µM was 81.9%.

On to `COc1cc(CNc2cc(-c3ccco3)ncn2)cc(OC)c1OC` [CBK091181], for which the viability at 28.5 h, 10 µM was 106%.

Take `COc1ccc(CCNC(=O)CSc2nc(N)c3c4c(sc3n2)CCCC4)cc1` [CBK095784]: the viability at 28.5 h, 10 µM turned out to be 94.2%.

For the compound `CC(C)(C)OC(=O)NCC1(CC(=O)O)CCCCC1` [CBK287030], the viability at 28.5 h, 10 µM worked out at 93%.

As for `O=S(=O)(NCC1(c2ccccc2)CCCC1)c1cccnc1` [CBK282762], the viability at 28.5 h, 10 µM turned out to be 102%.

On to `CN1CCN(C(=O)c2cc(C(C)(C)C)nn2Cc2ccc(Cl)cc2Cl)CC1` [CBK107285], for which the viability at 28.5 h, 10 µM amounted to 109%.

Consider `COc1ccc(N2C(=O)CC(N3CCN(c4ccc(S(=O)(=O)N5CCCC5)cc4)CC3)C2=O)cc1` (stereo not drawn) [CBK268851], for which the viability at 28.5 h, 10 µM turned out to be 85.1%.

For `CC1(C)Cc2cccc(OCC(=O)O)c2O1` [CBK270161], the viability at 28.5 h, 10 µM was 100%.

On to `O=C(NC(Cc1c[nH]c2ccccc12)C(=O)O)c1ccco1` (stereo not drawn) [CBK217706], for which the viability at 28.5 h, 10 µM is 92.5%.

Consider `O=C(Nc1cccc(F)c1)N(Cc1cccnc1)CC1CCCO1` (stereo not drawn) [CBK304065], for which the viability at 28.5 h, 10 µM came out at 109%.

Turning to `CN(Cc1cccc(C(F)(F)F)c1)C(=O)c1cn(CC2CCCO2)nn1` (stereo not drawn) [CBK304360], the viability at 28.5 h, 10 µM worked out at 99.8%.

With `COc1ccccc1NC(=O)c1[nH]nc(O)c1Cc1c(Cl)cccc1Cl` [CBK107846], the viability at 28.5 h, 10 µM is 90.2%.

Turning to `Cc1ccc(NC(=O)COc2ccccc2)c(NC(=O)c2ccco2)c1` [CBK266809], the viability at 28.5 h, 10 µM worked out at 95.6%.
